Experimental data reported in US20260174875A1 (Novo Nordisk A/S, priority 2023, published 2026).
Where two headings read alike, the source gives them in different places. Numbered stars: 1 amine (or outer) side, 2 acyl side, 3 side chain; on linkers, the order of the positions; unused ones are H or OH. Square brackets hold non-standard residues; d marks the D form. Side chains are listed from the residue outwards. * marks the point of attachment. C20 diacid = O=C(O)CCCCCCCCCCCCCCCCCCC(=O)*; C18 diacid = O=C(O)CCCCCCCCCCCCCCCCC(=O)*; C16 diacid = O=C(O)CCCCCCCCCCCCCCC(=O)*; γGlu = O=C(O)[C@H](CCC(=O)[*:2])N[*:1]; AEEA = NCCOCCOCC(=O)O; Aib = CC(C)(N)C(=O)O

Legend:
Format in all cases: cell-based
[1] = target: T1, human GLP-1 receptor (hGLP-1R) (Homo sapiens, UniProt P43220); assay: GLP-1 receptor assay, method A (CRE-luciferase reporter, BHK cells)
T1 construct: expressed in transfected cells
Description: (§1) To assess how the activation of the receptors is potentially influenced by the presence of human serum albumin (HSA), the in vitro assays were performed in the absence of HSA and presence of 1% (w/v) HSA.
Cells at approximately 80-90% confluence were washed once in PBS (Gibco 14190-094) and loosened from the cell flasks with Versene (Gibco, 15040-033). […] Cells were aliquoted and stored at −180° C. until use.
(§2) The assay buffer consisted of DMEM without phenol red (Gibco, 11880-028) supplemented with 1× GlutaMAX (Gibco, 35050-038), 10 mM HEPES (Gibco, 15630-056), 1% (w/v) ovalbumin (Sigma, A5503) and 0.1% (v/v) Pluronic F-68 (Gibco, 24040-032) either with HSA or without HSA (Sigma, A9511).
Frozen stocks of hGLP-1R BHK CRE-Luc cells were thawed in a 37° C. water bath, washed once in PBS (Gibco 14190-094) and diluted to 1.5×10^6 (1.5E+6) cells/mL in assay buffer with or without 2% (w/v) HSA (Sigma, A9511). […] The assay plates were incubated for 3 hours at 37° C. in 5% CO2, left at room temperature for 5 minutes after which 100 μL steadylite Plus™ (PerkinElmer/Revvity, 6066759) was added to each well. Plates were sealed and incubated at room temperature with gentle shaking for 30 minutes while protected from light. Luminescence was detected on a luminescence plate reader e.g., a Synergy 2 (BioTek).

[2] = target: T2, human amylin receptor (hAMYR3) (Homo sapiens, UniProt O60896+P30988); assay: Amylin receptor assay, method A (CRE-luciferase reporter, BHK cells)
T2 construct: host or cells: BHK cells (Hollex-1 line expressing hCTR(a) and CRE-Luc), further transfected with human RAMP3
Description: as §1
It is thus possible to measure hAMYR3 activity using a CRE-luciferase reporter gene introduced into Baby Hamster Kidney (BHK) cells co-expressing the hAMYR3.
The cell line was further transfected with human receptor modifying protein 3 (RAMP3) using standard methods.
After centrifugation, the cell pellet was resuspended and diluted to approximately 2.5-4.0×10^6 (2.5E+6 to 4.0E+6) cells/mL in Recovery™ Cell Culture Freezing Medium (Gibco, 12648-010). Cells were aliquoted and stored at −180° C. until use.
as §2, with “15630-056) and” for “15630-056),”, “either with or without” for “and”, “24040-032) and” for “24040-032)”, “with” for “with HSA”
The plate was incubated over night at 37° C. in 5% CO2. […] Luminescence was detected on a luminescence plate reader e.g., a Synergy 2 (BioTek).

[3] = target: T3, human GIP receptor (hGIPR) (Homo sapiens, UniProt P48546); assay: GIP receptor assay, method A (CRE-luciferase reporter, BHK cells)
T3 construct: expressed in transfected cells
T3 sequence (P48546 22-466): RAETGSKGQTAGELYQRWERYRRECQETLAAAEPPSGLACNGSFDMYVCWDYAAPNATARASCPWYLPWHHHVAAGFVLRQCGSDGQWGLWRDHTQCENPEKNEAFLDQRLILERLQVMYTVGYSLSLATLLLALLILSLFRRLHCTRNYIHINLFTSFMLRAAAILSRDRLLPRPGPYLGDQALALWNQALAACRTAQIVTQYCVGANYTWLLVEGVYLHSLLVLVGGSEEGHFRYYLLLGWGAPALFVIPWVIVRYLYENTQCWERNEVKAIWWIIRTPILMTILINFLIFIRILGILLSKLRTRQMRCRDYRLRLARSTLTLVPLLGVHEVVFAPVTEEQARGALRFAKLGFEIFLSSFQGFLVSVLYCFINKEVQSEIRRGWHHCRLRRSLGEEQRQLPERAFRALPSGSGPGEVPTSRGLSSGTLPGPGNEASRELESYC
Description: To assess how the activation of the receptors is potentially influenced by the presence of human serum albumin (HSA), the in vitro assays were performed in the absence of HSA and presence of 1% (w/v) HSA. Unless stated otherwise the reference to the “GIP receptor assay as described in Example 4” throughout the specification shall refer to the described herein assay procedure method A (hGIPR assay) in the absence of HSA.
Activation of the human GIP receptor leads to increased intra-cellular concentrations of cyclic AMP (cAMP) and the consequent transcription activation from promoters containing multiple copies of the cAMP response element (CRE). It is thus possible to measure GIP receptor activity using a CRE-luciferase reporter gene introduced into Baby Hamster Kidney (BHK) cells co-expressing the human GIP receptor.
Cells at about 80-90% confluency were washed once with PBS (Gibco 14190-094) and detached from the cell flasks with Versene (Gibco, 15040-066). After centrifugation, the cells were counted, resuspended and diluted to approximately 1.5-3.0×10^6 (1.5E+6 to 3.0E+6) cells/mL in Recovery Cell Culture Freezing Medium (Gibco, 12648-010) and stored at −180° C. in suitable aliquots until use.
as §2
On the day before the assay hGIPR BHK Cre-Luc cells were thawed and plated out in 96 well Culture Plates (PerkinElmer/Revvity, 6005680) at 5.0×10^3 (5.0E+3) cells/well in growth medium as described above. The plates were then incubated for 21-23 hours at 37° C. with 5% CO2. On the day of the assay GLP-1-/GIP-/amylin-receptor tri-agonists or reference compounds were diluted in assay buffer using a 7-point, 10-fold titration plus a blank (absence of compound). Each compound was diluted and tested in duplicates in each experiment. In the plates containing the cells the growth medium was removed, and cells were washed twice with 100 μL PBS (Gibco 14190-094). 50 μL of the test compound dilutions were added to the plates containing cells preceded by 50 μL assay buffer with or without 2% (w/v) HSA (Sigma, A9511). The cell plates were incubated for 3 hours in a 5% CO2 incubator at 37° C. The plates were then transferred to room temperature followed by addition of 100 μL steadylite Plus™ (PerkinElmer/Revvity, 6066759). The plates were sealed and shaken for 30 minutes at room temperature while protected from light. Finally, luminescence (as an indicator of receptor activation) was measured on a Mithras reader (Berthold Technologies, DE). The EC50-values [pM] were calculated by non-linear curve fitting applying a four-parameter logistic model (Hill slope=“shared value for all datasets”) using GraphPad Prism (GraphPad Software, Boston, MA, USA).

[4] = hGLP-1R Potency, 1% HSA, EC50, method A, in the presence of 1% HSA
[5] = method A, absence of HSA, read-out: hGLP-1R Potency, no HSA, EC50
[6] = hAMYR3 Potency, 1% HSA, EC50, method A, in the presence of 1% HSA
[7] = method A, absence of HSA, read-out: hAMYR3 Potency, no HSA, EC50
[8] = hGIPR Potency, 1% HSA, EC50, method A, in the presence of 1% HSA
[9] = method A, absence of HSA, read-out: hGIPR Potency, no HSA, EC50

T2 sequence (P30988 25-474): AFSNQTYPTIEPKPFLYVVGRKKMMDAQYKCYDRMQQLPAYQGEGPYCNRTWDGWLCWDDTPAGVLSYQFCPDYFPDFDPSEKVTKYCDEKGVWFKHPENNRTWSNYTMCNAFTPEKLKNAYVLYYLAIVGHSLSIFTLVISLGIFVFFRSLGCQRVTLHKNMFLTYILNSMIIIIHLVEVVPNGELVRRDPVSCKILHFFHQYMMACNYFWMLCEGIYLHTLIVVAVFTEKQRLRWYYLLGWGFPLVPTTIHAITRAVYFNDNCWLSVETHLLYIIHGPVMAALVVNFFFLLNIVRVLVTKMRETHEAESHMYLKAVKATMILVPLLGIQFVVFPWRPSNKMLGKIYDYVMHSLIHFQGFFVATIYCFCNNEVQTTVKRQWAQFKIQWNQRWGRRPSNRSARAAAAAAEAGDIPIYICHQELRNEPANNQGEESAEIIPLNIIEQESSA
T2 sequence (O60896 24-148): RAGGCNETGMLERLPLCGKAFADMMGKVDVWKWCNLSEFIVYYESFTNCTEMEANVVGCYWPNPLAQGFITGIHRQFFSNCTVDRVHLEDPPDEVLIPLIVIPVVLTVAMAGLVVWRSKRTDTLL
T1 sequence (P43220 24-463): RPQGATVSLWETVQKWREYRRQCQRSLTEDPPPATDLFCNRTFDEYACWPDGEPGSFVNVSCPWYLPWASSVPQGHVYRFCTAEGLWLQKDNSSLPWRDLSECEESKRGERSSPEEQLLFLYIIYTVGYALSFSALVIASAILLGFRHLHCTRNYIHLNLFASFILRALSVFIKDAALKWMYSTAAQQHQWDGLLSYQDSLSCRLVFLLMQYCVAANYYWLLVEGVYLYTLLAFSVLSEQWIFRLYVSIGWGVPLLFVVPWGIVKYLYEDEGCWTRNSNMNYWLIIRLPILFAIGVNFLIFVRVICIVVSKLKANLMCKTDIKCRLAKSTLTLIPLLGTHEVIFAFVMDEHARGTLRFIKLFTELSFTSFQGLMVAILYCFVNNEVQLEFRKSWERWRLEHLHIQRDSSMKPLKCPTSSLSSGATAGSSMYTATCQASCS

Substance | EC50 [1, 4] | EC50 [1, 5] | EC50 [2, 6] | EC50 [2, 7] | EC50 [3, 8] | EC50 [3, 9]
H[Aib]HGTFTSDYSILLEEQAAREFIEWLLAGGPSSGALAQTLAQTLASHLSTAQTQRLSAELHK([AEEA-AEEA-γGlu-C18 diacid])LATLPRTETGSGSP-NH2 [Compound 51] | 0.0322 nM | 0.00768 nM | 0.0571 nM | 0.00619 nM | 0.0619 nM | 0.00837 nM
Y[Aib]EGTFTSDYSILLEEQAAREFIEWLLAGGPSRGAPPPSGGGEASHLSTQTQGRLSAELHK([AEEA-AEEA-γGlu-C18 diacid])LATLPRTETGSGSP-NH2 [Compound 72] | 0.0417 nM | 0.0131 nM | 0.589 nM | 0.00657 nM | 0.00979 nM | 0.00212 nM
Y[Aib]EGTFTSDYSILLEEQAAREFIEWLLAGGPSK([AEEA-AEEA-γGlu-C18 diacid])GGGGEGGGEGEASHLSTAQTQRLSAELHELATLPRTETGSGSP-NH2 [Compound 40] | – | 0.0233 nM | – | 0.00549 nM | – | 0.00163 nM
Y[Aib]EGTFTSDYSILLEEQAAREFIEWLLAGGPSSGALAQTLAQTLASHLSTAQTQRLSAELHK([AEEA-AEEA-γGlu-C20 diacid])LATLPRTETGSGSP-NH2 [Compound 60] | 0.173 nM | 0.0944 nM | 0.191 nM | 0.00385 nM | 0.0283 nM | 0.00606 nM
Y[Aib]EGTFTSDYSILLEEQAAREFIEWLLAGGPSK([AEEA-AEEA-γGlu-C16 diacid])GASELSTAALGRLSAELHRLATLPRTETGSGSP-NH2 [Compound 20] | – | 0.0406 nM | – | 0.00365 nM | – | 0.00482 nM
Y[Aib]EGTFTSDYSILLEEQAAREFIEWLLAGGPSSGAPPPSGGGEASHLSTAQTQRLSAELHK([AEEA-AEEA-γGlu-C18 diacid])LATLPRTETGSGSP-NH2 [Compound 49] | 0.11 nM | 0.0333 nM | 0.106 nM | 0.00185 nM | 0.0167 nM | 0.00436 nM
Y[Aib]EGTFTSDYSILLEEQAAREFIEWLLAGGPSSGALAQTLAQTLASHLSTAQTQRLSAELHK([AEEA-AEEA-γGlu-C16 diacid])LATLPRTETGSGSP-NH2 [Compound 59] | 0.0397 nM | 0.0506 nM | 0.0242 nM | 0.00385 nM | 0.0272 nM | 0.00772 nM
Y[Aib]EGTFTSDYSILLEEQAAREFIEWLLAGGPSSGAGQAPGQAPLASHLSTAQTARLSAELHK([AEEA-AEEA-γGlu-C18 diacid])LATLPRTETGSGSP-NH2 [Compound 98] | 0.0431 nM | 0.0133 nM | 0.108 nM | 0.0023 nM | 0.0112 nM | 0.00258 nM
Y[Aib]EGTFTSDYSILLEEQAAREFIEWLLAGGPSSGALAQTLAQTLASHLSTAQTQRLSAELHK([AEEA-AEEA-γGlu-C18 diacid])LATLPRTETGSGSP-NH2 [Compound 48] | 0.105 nM | 0.0648 nM | 0.0785 nM | 0.0032 nM | 0.054 nM | 0.00702 nM
Y[Aib]EGTFTSDYSILLEEQAAREFIEWLLAGGPSSK([AEEA-AEEA-γGlu-C18 diacid])APPPSGGGEASELSTAALGRLSAELHRLATLPRTETGSGSP-NH2 [Compound 31] | – | 0.0478 nM | – | 0.00269 nM | – | 0.00473 nM
H[Aib]HGTFTSDYSILLEEQAAREFIEWLLAGGPSK([AEEA-AEEA-γGlu-C18 diacid])GEASELSTAALGRLSAELHRLATLPRTETGSGSP-NH2 [Compound 25] | – | 0.00287 nM | – | 0.00322 nM | – | 0.00427 nM
H[Aib]HGTFTSDYSILLEEQAAREFIEWLLAGGPSRGAPPPSGGGEASHLSTQTQGRLSAELHK([AEEA-AEEA-γGlu-C18 diacid])LATLPRTETGSGSP-NH2 [Compound 71] | 0.0184 nM | 0.00334 nM | 0.274 nM | 0.00866 nM | 0.00928 nM | 0.00277 nM
H[Aib]HGTFTSDYSILLEEQAAREFIEWLLAGGPSRGAPPPSGGGEASELSTAALGRLSAELHK([AEEA-AEEA-γGlu-C18 diacid])LATLPRTETGSGSP-NH2 [Compound 70] | 0.0184 nM | 0.00348 nM | 0.0594 nM | 0.00453 nM | 0.0191 nM | 0.00589 nM
H[Aib]HGTFTSDYSILLEEQAAREFIEWLLAGGPSSGALQAPGQAPGASHLSTAQTARLSAELHRLK([AEEA-AEEA-γGlu-C18 diacid])TLPRTETGSGSP-NH2 [Compound 106] | 0.0111 nM | 0.00333 nM | 0.0312 nM | 0.00207 nM | 0.0103 nM | 0.0048 nM
Y[Aib]EGTFTSDYSILLEEQAAREFIEWLLAGGPSK([AEEA-AEEA-γGlu-C18 diacid])GAEASELSTAALGRLSAELHELATLPRTETGSGSP-NH2 [Compound 32] | – | 0.0276 nM | – | 0.0101 nM | – | 0.00809 nM
Y[Aib]EGTFTSDYSILLEEQAAREFIEWLLAGGPSK([AEEA-AEEA-γGlu-C18 diacid])GEASELSTAALARLSAELHRLATLPRTETGSGSP-NH2 [Compound 28] | – | 0.096 nM | – | 0.00228 nM | – | 0.0035 nM
H[Aib]HGTFTSDYSILLEEQAAREFIEWLLAGGPSSGEASHLSTAALGRLSAELHRLATLPK([AEEA-AEEA-γGlu-C18 diacid])TETGSGSP-NH2 [Compound 90] | 0.0386 nM | 0.00416 nM | 0.183 nM | 0.00545 nM | 0.0325 nM | 0.0054 nM
